# Results taken from US8399676B2, “Piperidine derivatives” (Hoffman-La Roche Inc., priority 2009, dated 2013).
# Where a name gives a salt, the structure may show the parent alone.
# Biological target: T1, human HSL (Homo sapiens, UniProt Q05469)
# T1 construct: generate a full length human HSL ORF with a 3′-His6 tag; His6 (C); made in house; host or cells: High 5 insect cells (baculovirus, pFast-BAC)
# T1 sequence (Q05469 1-1076): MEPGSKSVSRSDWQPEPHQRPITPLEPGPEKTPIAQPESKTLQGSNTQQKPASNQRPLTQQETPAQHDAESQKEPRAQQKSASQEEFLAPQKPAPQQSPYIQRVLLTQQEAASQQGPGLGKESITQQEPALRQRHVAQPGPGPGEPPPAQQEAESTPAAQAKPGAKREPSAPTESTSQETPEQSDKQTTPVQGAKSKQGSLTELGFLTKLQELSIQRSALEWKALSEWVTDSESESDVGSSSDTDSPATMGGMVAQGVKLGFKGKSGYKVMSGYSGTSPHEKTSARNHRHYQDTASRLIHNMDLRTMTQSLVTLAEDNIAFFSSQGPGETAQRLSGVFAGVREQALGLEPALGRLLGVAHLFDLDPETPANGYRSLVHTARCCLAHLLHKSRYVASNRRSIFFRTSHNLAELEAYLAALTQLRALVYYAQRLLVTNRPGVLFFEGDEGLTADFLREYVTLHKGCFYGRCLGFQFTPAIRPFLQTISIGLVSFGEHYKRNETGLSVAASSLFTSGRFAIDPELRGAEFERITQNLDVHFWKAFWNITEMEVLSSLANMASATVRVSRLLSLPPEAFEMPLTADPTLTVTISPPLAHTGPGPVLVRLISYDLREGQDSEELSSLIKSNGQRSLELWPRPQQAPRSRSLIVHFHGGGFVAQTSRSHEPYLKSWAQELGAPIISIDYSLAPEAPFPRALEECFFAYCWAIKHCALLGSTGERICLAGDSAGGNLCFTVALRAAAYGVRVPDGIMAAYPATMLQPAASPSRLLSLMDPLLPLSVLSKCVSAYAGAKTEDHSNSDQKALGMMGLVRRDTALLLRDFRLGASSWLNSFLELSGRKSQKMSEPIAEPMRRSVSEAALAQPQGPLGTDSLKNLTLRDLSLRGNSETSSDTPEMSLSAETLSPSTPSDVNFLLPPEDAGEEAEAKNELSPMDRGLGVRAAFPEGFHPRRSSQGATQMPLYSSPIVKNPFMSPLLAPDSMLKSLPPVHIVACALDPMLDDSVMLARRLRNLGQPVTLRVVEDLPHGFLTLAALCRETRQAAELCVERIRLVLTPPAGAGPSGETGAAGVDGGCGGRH
# Assay: Human Hormone-Sensitive Lipase (HSL) enzyme inhibition assay (colorimetric, DMPT substrate)
# Format: biochemical
# Settings: read-out: HSL hum IC50
# Summary of the method: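 Full-length human HSL carrying a C-terminal His6 tag was expressed in High 5 insect cells via baculovirus and purified on Ni-NTA. Compounds from 3-fold DMSO series were mixed with 1.5 mM DMPT substrate suspension in 100 mM MOPS pH 7.2 with 0.2 mg/ml fatty acid-free BSA, then enzyme (15 ug/ml) was added for 20 minutes at 37 °C. Released thiol was detected with DTNB plus SDS/Triton X-100 (15 minutes, room temperature) at 405 nm.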
row,Structure (SMILES),IC50
1,"O=C(CC1CCCC1)N1CCC(O)(C(=O)Nc2ccc(OC(F)(F)F)cc2)CC1 [Example 53, 1-(2-Cyclopentyl-acetyl)-4-hydroxy-piperidine-4-carboxylic acid (4-trifluoromethoxy-phenyl)-amide]",790 nM
2,"Cc1ccccc1CN1CCC(O)(C(=O)Nc2ccc(C(C)(C)C)cc2)CC1 [Example 46, 4-Hydroxy-1-(2-methyl-benzyl)-piperidine-4-carboxylic acid (4-tert-butyl-phenyl)-amide]",220 nM
3,"CC(C)c1ccc(NC(=O)C2(N)CCN(C(=O)c3ccccc3Cl)CC2)cc1 [Example 124, 4-Amino-1-(2-chloro-benzoyl)-piperidine-4-carboxylic acid (4-isopropyl-phenyl)-amide]",230 nM
4,"C=Cc1ccc(NC(=O)C2(N)CCN(S(=O)(=O)c3ccccc3Cl)CC2)cc1 [Example 100, 4-Amino-1-(2-chloro-benzenesulfonyl)-piperidine-4-carboxylic acid (4-vinyl-phenyl)-amide]",140 nM
5,"CC(C)c1ccc(NC(=O)C2(N)CCN(Cc3ccc(F)cc3)CC2)cc1 [Example 121, 4-Amino-1-(4-fluoro-benzyl)-piperidine-4-carboxylic acid (4-isopropyl-phenyl)-amide; hydrochloride]",160 nM
6,"CC(C)(C)c1ccc(NC(=O)N2CCC(N)(C(=O)Nc3ccc(F)cc3)CC2)cc1 [Example 87, 4-Amino-piperidine-1,4-dicarboxylic acid 1-[(4-tert-butyl-phenyl)-amide]-4-[(4-fluoro-phenyl)-amide]; hydrochloride]",780 nM
7,"CC(C)c1ccc(NC(=O)C2(N)CCN(C(=O)Nc3ccc(C(C)(C)C)cc3)CC2)cc1 [Example 89, 4-Amino-piperidine-1,4-dicarboxylic acid 1-[(4-tert-butyl-phenyl)-amide]-4-[(4-isopropyl-phenyl)-amide]; hydrochloride]",120 nM
8,"CC(C)(C)c1ccc(NC(=O)C2(N)CCN(C(=O)Nc3ccc(OC(F)(F)F)cc3)CC2)cc1 [Example 86, 4-Amino-piperidine-1,4-dicarboxylic acid 4-[(4-tert-butyl-phenyl)-amide]1-[(4-trifluoromethoxy-phenyl)-amide]; hydrochloride]",140 nM
9,"CC(C)(C)c1ccc(NC(=O)C2(O)CCN(S(=O)(=O)c3ccccc3Cl)CC2)cc1 [Example 17, 1-(2-Chloro-benzenesulfonyl)-4-hydroxy-piperidine-4-carboxylic acid (4-tert-butyl-phenyl)-amide]",60 nM
10,"CCc1cccc(NC(=O)C2(N)CCN(S(=O)(=O)c3ccccc3Cl)CC2)c1 [Example 92, 4-Amino-1-(2-chloro-benzenesulfonyl)-piperidine-4-carboxylic acid (3-ethyl-phenyl)-amide]",860 nM
11,"CCCCc1ccc(NC(=O)C2(N)CCN(S(=O)(=O)c3ccccc3Cl)CC2)cc1 [Example 104, 4-Amino-1-(2-chloro-benzenesulfonyl)-piperidine-4-carboxylic acid (4-butyl-phenyl)-amide]",60 nM
12,"CN(C(=O)C1(O)CCN(Cc2ccccc2F)CC1)c1ccc(OC(F)(F)F)cc1 [Example 67, 1-(2-Fluoro-benzyl)-4-hydroxy-piperidine-4-carboxylic acid methyl-(4-trifluoromethoxy-phenyl)-amide]",190 nM
13,"CC(C)(C)CC(=O)N1CCC(O)(C(=O)Nc2ccc(OC(F)(F)F)cc2)CC1 [Example 51, 1-(3,3-Dimethyl-butyryl)-4-hydroxy-piperidine-4-carboxylic acid (4-trifluoromethoxy-phenyl)-amide]",810 nM
14,"CCCc1ccc(NC(=O)C2(N)CCN(S(=O)(=O)c3ccccc3Cl)CC2)cc1 [Example 98, 4-Amino-1-(2-chloro-benzenesulfonyl)-piperidine-4-carboxylic acid (4-propyl-phenyl)-amide]",70 nM
15,"CCc1ccc(NC(=O)C2(N)CCN(S(=O)(=O)c3ccccc3F)CC2)cc1 [Example 134, 4-Amino-1-(2-fluoro-benzenesulfonyl)-piperidine-4-carboxylic acid (4-ethyl-phenyl)-amide]",60 nM
16,"CCc1ccc(NC(=O)C2(N)CCN(Cc3ccccc3OC(F)F)CC2)cc1 [Example 155, 4-Amino-1-(2-difluoromethoxy-benzyl)-piperidine-4-carboxylic acid (4-ethyl-phenyl)-amide]",110 nM
17,"NC1(C(=O)Nc2ccc3c(c2)CCC3)CCN(S(=O)(=O)c2ccccc2Cl)CC1 [Example 99, 4-Amino-1-(2-chloro-benzenesulfonyl)-piperidine-4-carboxylic acid indan-5-ylamide]",60 nM
18,"CCc1ccc(NC(=O)C2(N)CCN(S(=O)(=O)c3ccccc3S(C)(=O)=O)CC2)cc1 [Example 136, 4-Amino-1-(2-methanesulfonyl-benzenesulfonyl)-piperidine-4-carboxylic acid (4-ethyl-phenyl)-amide]",610 nM
19,"CN(C(=O)C1(O)CCN(S(=O)(=O)CC(C)(C)C)CC1)c1ccc(OC(F)(F)F)cc1 [Example 65, 1-(2,2-Dimethyl-propane-1-sulfonyl)-4-hydroxy-piperidine-4-carboxylic acid methyl-(4-trifluoromethoxy-phenyl)-amide]",490 nM
20,"Cc1ccc(S(=O)(=O)N2CCC(N)(C(=O)Nc3ccc(OC(F)(F)F)cc3)CC2)cc1 [Example 80, 4-Amino-1-(toluene-4-sulfonyl)-piperidine-4-carboxylic acid (4-trifluoromethoxy-phenyl)-amide; hydrochloride]",50 nM
21,"COC1(C(=O)Nc2ccc(C(C)(C)C)cc2)CCN(S(=O)(=O)c2ccccc2Cl)CC1 [Example 76, 1-(2-Chloro-benzenesulfonyl)-4-methoxy-piperidine-4-carboxylic acid (4-tert-butyl-phenyl)-amide]",530 nM
22,"CC(C)CCC(=O)N1CCC(N)(C(=O)Nc2ccc(C(C)C)cc2)CC1 [Example 129, 4-Amino-1-(4-methyl-pentanoyl)-piperidine-4-carboxylic acid (4-isopropyl-phenyl)-amide]",480 nM
23,"CC(C)(C)c1ccc(NC(=O)C2(O)CCN(C(=O)c3ccc(F)cc3)CC2)cc1 [Example 18, 1-(4-Fluoro-benzoyl)-4-hydroxy-piperidine-4-carboxylic acid (4-tert-butyl-phenyl)-amide]",210 nM
24,"CC(C)(C)c1ccc(NC(=O)C2(O)CCN(C(=O)c3ccc(F)cc3F)CC2)cc1 [Example 41, 1-(2,4-Difluoro-benzoyl)-4-hydroxy-piperidine-4-carboxylic acid (4-tert-butyl-phenyl)-amide]",490 nM
25,"Cc1ccc(S(=O)(=O)N2CCC(O)(C(=O)Nc3ccc(OC(C)C)cc3)CC2)cc1 [Example 12, 4-Hydroxy-1-(toluene-4-sulfonyl)-piperidine-4-carboxylic acid (4-isopropoxy-phenyl)-amide]",860 nM
26,"CCc1ccc(NC(=O)C2(N)CCN(Cc3ccc(C(C)C)cc3)CC2)cc1 [Example 158, 4-Amino-1-(4-isopropyl-benzyl)-piperidine-4-carboxylic acid (4-ethyl-phenyl)-amide]",460 nM
27,"CC(C)CS(=O)(=O)N1CCC(N)(C(=O)Nc2ccc(C(C)C)cc2)CC1 [Example 120, 4-Amino-1-(2-methyl-propane-1-sulfonyl)-piperidine-4-carboxylic acid (4-isopropyl-phenyl)-amide; hydrochloride]",230 nM
